Literature values in patent EP0514015A1, “Control of sex differentiation in fish” (MERCK & CO. INC., priority 1991, dated 1992).

Assays:
Oreochromis aureus = details: tilapia, broad range of doses, fed to 3 to 5-day old fry for a period of 22 days
Cyprinus carpio = details: carp, oral administration at 50ppm in feed from weeks 6 through 11 after hatching

Row | SMILES | sex-reversing (Oreochromis aureus) | phenotypic males (Cyprinus carpio)
1 | C#C[C@]1(O)CC[C@H]2[C@@H]3CCC4=CC(=O)CC[C@]4(C)[C@H]3CC[C@@]21C [17-alpha-ethynyltestosterone] | effective | –
2 | C[C@]12CCC(=O)C=C1CC[C@@H]1[C@@H]2CC[C@@]2(C)[C@H]1CC[C@]2(C)O [17-alpha-methyltestosterone] | effective | greater than 90%
